Test results reported in US20240148821A1, “PHARMACEUTICAL USE OF CYCLIC PEPTIDE COMPOUND” (CHUGAI SEIYAKU KABUSHIKI KAISHA, priority 2021, published 2024).
Numbered stars: 1 amine (or outer) side, 2 acyl side, 3 side chain; on linkers, the order of the positions; unused ones are H or OH. Bridge positions count the residues as written; N and C are the ends. Square brackets hold non-standard residues; d marks the D form. Peptide text beside a SMILES is read from it. * marks the point of attachment. hPhe(3,5-F2-4-CF3) = N[C@@H](CCc1cc(F)c(C(F)(F)F)c(F)c1)C(=O)O; hPhe(3-Cl-4-CF3) = N[C@@H](CCc1ccc(C(F)(F)F)c(Cl)c1)C(=O)O; NMePhe(4-CF3) = CN[C@@H](Cc1ccc(C(F)(F)F)cc1)C(=O)O; NMePhe(4-Cl) = CN[C@@H](Cc1ccc(Cl)cc1)C(=O)O; NMePhe(4-Me) = CN[C@@H](Cc1ccc(C)cc1)C(=O)O; NMePhe(4-F) = CN[C@@H](Cc1ccc(F)cc1)C(=O)O; NMedβ3hAla = C[C@H](CC(=O)[*:2])N(C)[*:1]; Phe(2-Cl) = N[C@@H](Cc1ccccc1Cl)C(=O)O; Phe(3-I) = N[C@@H](Cc1cccc(I)c1)C(=O)O; Pro(4,4-F2) = O=C(O)[C@@H]1CC(F)(F)CN1; NMeCha = CN[C@@H](CC1CCCCC1)C(=O)O; NMeChg = CN[C@H](C(=O)O)C1CCCCC1; Gly(cPr) = N[C@H](C(=O)O)C1CC1; NMeD = CN[C@@H](CC(=O)O)C(=O)O; NMeL = CN[C@@H](CC(C)C)C(=O)O; NMeV = CN[C@H](C(=O)O)C(C)C; NMeA = CN[C@@H](C)C(=O)O; NMeAib = CNC(C)(C)C(=O)O; Nle = CCCC[C@H](N)C(=O)O; Piperidide = C1CCN(*)CC1; Pyrrolidide = C1CCN(*)C1; Ac5c = NC1(C(=O)O)CCCC1; Aze = O=C(O)[C@@H]1CCN1; Ac4c = NC1(C(=O)O)CCC1; Sar = CNCC(=O)O

tested on: Human pancreatic cancer cell line AsPC-1 (G12D mutation Kras); assay: AsPC-1 cell growth inhibition (AsPC-1 CGI); type: cell-based; conditions: read-out: AsPC-1 cell growth inhibition, 50% growth inhibitory concentration (IC50 value); 96 hours, CellTiter-Glo, values classified in ranges
Protocol: Test compounds were serially dilated with dimethyl sulfoxide, and 200 nL was then dispensed to a U-bottom 96-well plate using Labcyte Echo. […] The cell suspension was dispensed to a. plate containing a test compound at 100 μL per well and incubated at 37° C. in a 5% carbon dioxide gas incubator. 96 hours later, 80 μL of CellTiter-Glo (Promega) was added to each well and fluorescence was measured.

Structure (SMILES)	IC50
CC[C@H](C)[C@@H]1NC(=O)[C@H](C)N(C)C(=O)C[C@@H](C(=O)N2CCCCC2)N(C)C(=O)[C@H](C(C)C)N(C)C(=O)C2(CCCC2)NC(=O)[C@@H]2CCCN2C(=O)[C@H](CCc2ccc(C(F)(F)F)c(Cl)c2)NC(=O)CN(C)C(=O)[C@H](Cc2ccc(F)cc2)N(C)C(=O)[C@@H]2CCCN2C(=O)CN(C)C1=O [Compound 1698] ([NMeA]I[Sar]P[NMePhe(4-F)][Sar][hPhe(3-Cl-4-CF3)]P[Ac5c][NMeV][NMeD]-Piperidide; lactam N-11)	> 500 nM
CC[C@H](C)[C@@H]1NC(=O)[C@H](CC(C)C)N(C)C(=O)C[C@@H](C(=O)N2CCCC2)N(C)C(=O)[C@H](C2CCCCC2)N(C)C(=O)C2(CCC2)NC(=O)[C@@H]2CC(F)(F)CN2C(=O)[C@H](CCc2cc(F)c(C(F)(F)F)c(F)c2)NC(=O)CN(C)C(=O)[C@H](CC2CCCCC2)N(C)C(=O)CN(C)C(=O)CN(C)C1=O [Compound 1192] ([NMeL]I[Sar][Sar][NMeCha][Sar][hPhe(3,5-F2-4-CF3)][Pro(4,4-F2)][Ac4c][NMeChg][NMeD]-Pyrrolidide; lactam N-11)	≤ 20 nM
CC[C@H](C)[C@@H]1NC(=O)[C@H](C)N(C)C(=O)C[C@@H](C(=O)N2CCCCC2)N(C)C(=O)[C@H](C(C)C)N(C)C(=O)C2(CCCC2)NC(=O)[C@H](Cc2ccc(F)cc2)N(C)C(=O)[C@H](CCc2ccc(C(F)(F)F)c(Cl)c2)NC(=O)CN(C)C(=O)[C@H](CC2CCCCC2)N(C)C(=O)CN(C)C(=O)CN(C)C1=O [Compound 821] ([NMeA]I[Sar][Sar][NMeCha][Sar][hPhe(3-Cl-4-CF3)][NMePhe(4-F)][Ac5c][NMeV][NMeD]-Piperidide; lactam N-11)	> 500 nM
CC[C@H](C)[C@@H]1NC(=O)[C@H](CC(C)C)N(C)C(=O)C[C@@H](C(=O)N2CCCCC2)N(C)C(=O)[C@H](CC(C)C)NC(=O)C(C)(C)N(C)C(=O)[C@H](Cc2ccccc2Cl)NC(=O)[C@H](Cc2cccc(I)c2)NC(=O)CN(C)C(=O)[C@H](Cc2ccc(C)cc2)N(C)C(=O)CN(C)C(=O)CN(C)C1=O [Compound 706] ([NMeL]I[Sar][Sar][NMePhe(4-Me)][Sar][Phe(3-I)][Phe(2-Cl)][NMeAib]L[NMeD]-Piperidide; lactam N-11)	> 500 nM
CC(C)C[C@H]1C(=O)N[C@@H](C2CC2)C(=O)N(C)CC(=O)N(C)CC(=O)N(C)[C@@H](CC2CCCCC2)C(=O)N(C)CC(=O)N[C@@H](CCc2ccc(C(F)(F)F)c(Cl)c2)C(=O)N2CCC[C@H]2C(=O)NC2(CCCC2)C(=O)N(C)[C@@H](C2CCCCC2)C(=O)N(C)[C@H](C(=O)N2CCCCC2)CC(=O)N1C [Compound 1862] ([NMeL][Gly(cPr)][Sar][Sar][NMeCha][Sar][hPhe(3-Cl-4-CF3)]P[Ac5c][NMeChg][NMeD]-Piperidide; lactam N-11)	> 500 nM
CC[C@H](C)[C@@H]1NC(=O)[C@H](CC(C)C)N(C)C(=O)C[C@@H](C)N(C)C(=O)[C@H](CC(C)C)NC(=O)C(C)(C)N(C)C(=O)[C@H](CC(C)C)NC(=O)[C@H](CCc2ccc(C(F)(F)F)c(Cl)c2)NC(=O)CN(C)C(=O)[C@H](CC2CCCCC2)N(C)C(=O)[C@@H]2CCN2C(=O)CN(C)C1=O [Compound 57] (cyclo([Aze][NMeCha][Sar][hPhe(3-Cl-4-CF3)]L[NMeAib]L[NMedβ3hAla][NMeL]I[Sar]))	> 500 nM
CCCC[C@@H]1NC(=O)[C@H](Cc2cccc(I)c2)NC(=O)CN(C)C(=O)[C@H](Cc2ccc(Cl)cc2)N(C)C(=O)CN(C)C(=O)CN(C)C(=O)[C@H]([C@@H](C)CC)NC(=O)[C@H](CC(C)C)N(C)C(=O)C[C@@H](C(=O)N2CCCCC2)N(C)C(=O)[C@H](CC(C)C)NC(=O)[C@H](Cc2ccc(C(F)(F)F)cc2)N(C)C1=O [Compound 498] ([NMeL]I[Sar][Sar][NMePhe(4-Cl)][Sar][Phe(3-I)][Nle][NMePhe(4-CF3)]L[NMeD]-Piperidide; lactam N-11)	> 500 nM
